≈ marks a conversion by molar mass, not a printed value. Where “and” joins values, the source holds several entries; their conditions need not be identical. Identical values can stand only once. Like-named read-outs stand apart in the source and are kept apart here.
Columns and labels:
ecLeuRS [1] = target: T1, ecLeuRS (Escherichia coli, UniProt P07813); conditions: cited from earlier work
E. coli ATCC25922 [2] = experiment: MIC, visible growth in 96-well plates; type: cell-based, Escherichia coli
ecLeuRS [3] = target: T1, ecLeuRS; experiment: SPR single-cycle kinetics, BAP-ecLeuRS in the presence of AMP; type: binding; conditions: for Kd/IC50: ratio of SPR Kd (AMP) and IC50 after 1 h preincubation; for kon: read-out: SPR kon
ecLeuRS D342E [4] = target: T2, ecLeuRS D342E (Escherichia coli, UniProt P07813, D342E); experiment: biochemical; type: binding
E. coli ATCC25922 [5] = experiment: Checkerboard MIC assay and FIC index; type: cell-based, Escherichia coli; conditions: for MIC: Escherichia coli
M. tuberculosis H37Rv = experiment: MIC, microplate Alamar blue assay; type: cell-based; conditions: Mycobacterium tuberculosis
E. coli ATCC25922 [6] = experiment: Time-kill assay; type: cell-based, Escherichia coli; conditions: combination of ganfeborole and Nva, M9 medium
mtLeuRS [7] = target: T3, mtLeuRS (Mycobacterium tuberculosis, UniProt P9WFV1); experiment: biochemical; conditions: IC50, 1 h preincubation, 1 h preincubation with enzyme and mttRNA^Leu
ecLeuRS D342E [8] = target: T2, ecLeuRS D342E; experiment: biochemical; type: biochemical
human cytoplasmic LeuRS = conditions: read-out: reported IC50; cited from earlier work
mtLeuRS [9] = target: T3, mtLeuRS; conditions: mtLeuRS in the presence of AMP; cited from earlier work
ecLeuRS [10] = target: T1, ecLeuRS; experiment: LeuRS aminoacylation-activity assay; type: biochemical; conditions: IC50, 1 h preincubation, 1 h preincubation with enzyme and ectRNA^Leu
mtLeuRS [11] = target: T3, mtLeuRS; type: binding
E. coli ΔtolC and ΔacrAB = type: cell-based, Escherichia coli
[12] = tested on: E. coli mutant strains (ecLeuRS D342E, G333D, D345N, V335D); experiment: microbe, parasite or virus in culture; type: cell-based, Escherichia coli
[13] = tested on: human mitochondrial LeuRS; conditions: read-out: reported IC50; cited from earlier work
[14] = tested on: M. tuberculosis H37Rv_LuxABCDE; experiment: Post-antibiotic effect, autobioluminescent strain; type: cell-based, Mycobacterium tuberculosis
M. tuberculosis = conditions: cited from earlier work
[15] = 1xMIC exposure for 2.5 h, 10,000-fold dilution
[16] = 10xMIC exposure for 2.5 h, 10,000-fold dilution
[17] = 30xMIC exposure for 2.5 h, 10,000-fold dilution
[18] = 50xMIC exposure for 2.5 h, 10,000-fold dilution

T2 sequence (P07813 whole entry D342E): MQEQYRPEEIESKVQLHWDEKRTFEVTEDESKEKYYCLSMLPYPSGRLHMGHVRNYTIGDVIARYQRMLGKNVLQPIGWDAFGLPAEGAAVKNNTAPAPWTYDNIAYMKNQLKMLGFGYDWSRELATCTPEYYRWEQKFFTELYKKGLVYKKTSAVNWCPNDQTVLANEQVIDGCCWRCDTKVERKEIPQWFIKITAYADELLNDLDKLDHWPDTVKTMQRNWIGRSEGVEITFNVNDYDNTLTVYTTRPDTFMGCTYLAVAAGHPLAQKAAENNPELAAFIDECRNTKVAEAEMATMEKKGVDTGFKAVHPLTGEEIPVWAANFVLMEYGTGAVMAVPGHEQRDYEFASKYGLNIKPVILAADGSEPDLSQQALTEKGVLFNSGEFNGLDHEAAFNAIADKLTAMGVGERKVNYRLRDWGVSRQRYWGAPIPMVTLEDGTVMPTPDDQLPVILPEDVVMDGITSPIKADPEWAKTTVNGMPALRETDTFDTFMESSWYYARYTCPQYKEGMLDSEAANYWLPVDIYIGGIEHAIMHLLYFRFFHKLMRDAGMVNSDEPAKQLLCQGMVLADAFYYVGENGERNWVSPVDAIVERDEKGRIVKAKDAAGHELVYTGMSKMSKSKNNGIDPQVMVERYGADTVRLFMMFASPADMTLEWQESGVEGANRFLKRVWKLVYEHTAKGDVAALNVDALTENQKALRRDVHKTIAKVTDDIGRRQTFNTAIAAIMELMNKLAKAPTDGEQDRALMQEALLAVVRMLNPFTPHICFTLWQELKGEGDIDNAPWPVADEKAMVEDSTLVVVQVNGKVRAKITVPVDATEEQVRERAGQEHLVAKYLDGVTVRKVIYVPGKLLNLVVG
T3 sequence (P9WFV1 whole entry): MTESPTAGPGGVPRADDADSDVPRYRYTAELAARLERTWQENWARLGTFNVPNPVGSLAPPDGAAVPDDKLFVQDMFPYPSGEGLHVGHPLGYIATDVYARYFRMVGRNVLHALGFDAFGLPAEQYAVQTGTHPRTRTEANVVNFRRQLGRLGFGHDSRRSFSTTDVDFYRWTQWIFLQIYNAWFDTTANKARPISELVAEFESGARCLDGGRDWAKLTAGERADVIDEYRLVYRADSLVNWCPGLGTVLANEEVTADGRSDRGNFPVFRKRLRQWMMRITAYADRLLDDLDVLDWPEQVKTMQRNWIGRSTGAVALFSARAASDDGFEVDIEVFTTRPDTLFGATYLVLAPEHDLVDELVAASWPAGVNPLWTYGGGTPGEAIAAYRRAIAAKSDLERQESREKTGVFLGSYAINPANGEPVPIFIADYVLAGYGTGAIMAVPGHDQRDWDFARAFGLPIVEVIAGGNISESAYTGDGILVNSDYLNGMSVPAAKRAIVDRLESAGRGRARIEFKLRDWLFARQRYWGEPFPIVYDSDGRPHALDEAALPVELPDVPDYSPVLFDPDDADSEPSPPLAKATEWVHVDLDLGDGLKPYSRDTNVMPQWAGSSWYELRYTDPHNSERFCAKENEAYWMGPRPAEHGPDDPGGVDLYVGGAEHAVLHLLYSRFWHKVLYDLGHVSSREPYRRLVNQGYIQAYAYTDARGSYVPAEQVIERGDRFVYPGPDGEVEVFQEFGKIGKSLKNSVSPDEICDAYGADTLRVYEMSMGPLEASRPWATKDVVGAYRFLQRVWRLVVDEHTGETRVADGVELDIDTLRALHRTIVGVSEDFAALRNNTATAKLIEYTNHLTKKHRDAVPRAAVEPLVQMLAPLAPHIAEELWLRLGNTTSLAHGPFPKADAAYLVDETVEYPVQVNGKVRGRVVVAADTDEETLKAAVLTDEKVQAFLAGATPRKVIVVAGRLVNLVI
T1 sequence (P07813 whole entry): as the sequence (P07813 whole entry D342E) above, with E342D counted along it

Compound: NCC1OB(O)c2c(OCCCO)cccc21 (centres unmarked) [AN3213]
- reported residence time (ecLeuRS [1]; ecLeuRS and tRNA^Leu): 23 h

Compound: NC[C@H]1OB(O)c2c(OCCCO)cccc21 [Epetraborole]
- MIC (E. coli ATCC25922 [2]; Escherichia coli, ATCC25922): 1.56 µM (≈ 0.37 µg/mL)
- Kd (ecLeuRS [3]): 1100 ± 71 nM
- Kd/IC50 (ecLeuRS [3]; ecLeuRS): 367
- kon (ecLeuRS [3]): 62000 ± 33000 M⁻¹ s⁻¹
- residence time (ecLeuRS [1]; ecLeuRS with tRNA^Leu): 23 h

Compound: NC[C@H]1OB(O)c2c(OCCO)ccc(Cl)c21 [Ganfeborole, (S)-3-(Aminomethyl)-4-chloro-7-(2-hydroxyethoxy)benzo[c][1,2]oxaborol-1(3H)-ol]
- Kd (ecLeuRS D342E [4]): 1700 ± 197 nM
- Kd/IC50 (ecLeuRS D342E [4]): 85
- koff (ecLeuRS D342E [4]; read-out: SPR koff): 0.07 ± 0.0071 s⁻¹
- kon (ecLeuRS D342E [4]; read-out: SPR kon): 42000 ± 1000 M⁻¹ s⁻¹
- residence time (ecLeuRS D342E [4]; read-out: SPR tR (residence time)): 0.24 ± 0.02 min
- fold decrease in the MIC of ganfeborole on addition of Nva (E. coli ATCC25922 [5]; E. coli, 12.5 μM Nva): > 1000 fold
- MIC (E. coli ATCC25922 [5]; ATCC25922, read-out: MIC of ganfeborole + 12.5 μM Nva, E. coli ATCC25922, M9 media, + 12.5 μM Nva): 0.4 µM
- MIC (E. coli ATCC25922 [5]; ATCC25922, read-out: MIC of ganfeborole + 100 μM Nva + 100 μM Leu, E. coli ATCC25922, M9 media, + 100 μM Nva + 100 μM Leu): 1600 µM
- FICI (E. coli ATCC25922 [5]; checkerboard of Nva and ganfeborole, E. coli ATCC25922): < 0.5
- MIC (M. tuberculosis H37Rv): 0.058 µM (≈ 0.0149 µg/mL)
- time-kill result (E. coli ATCC25922 [6]): cidality
- MIC (E. coli ATCC25922 [2]; E. coli wild-type, Table 4 (CAMH medium)): >1000 µM
- MIC (E. coli ATCC25922 [2]; Escherichia coli, ATCC25922): > 1000 µM
- antibacterial activity towards E. coli, no activity up to (E. coli ATCC25922 [2]; wild-type E. coli): > 1 mM
- IC50 (mtLeuRS [7]): 1 ± 0.1 nM
- fold increase in IC50, D342E mutant versus ecLeuRS (ecLeuRS D342E [8]): 10 fold
- IC50 (ecLeuRS D342E [8]; IC50, 2 min preincubation): 278 ± 19 nM
- IC50 (ecLeuRS D342E [8]; IC50, 20 min preincubation): 60 ± 4 nM
- IC50 (ecLeuRS D342E [8]; IC50, 1 h preincubation): 20 ± 2 nM
- IC50 (human cytoplasmic LeuRS): 132000 nM
- Kd (mtLeuRS [9]): 10.4 nM
- IC50 (ecLeuRS [10]): 2 ± 0.1 nM
- Kd (ecLeuRS [3]): 17 ± 1 nM
- fold more potent binding than compound 1 (ecLeuRS [3]; ecLeuRS, SPR with AMP): 30-40 fold
- SPR tR (residence time) (ecLeuRS [3]; ecLeuRS, in the presence of AMP): 104 ± 5 min
- Kd/IC50 (ecLeuRS [3]; ecLeuRS): 8.5
- koff (ecLeuRS [3]; read-out: SPR koff): 0.00016 ± 1e-05 s⁻¹
- kon (ecLeuRS [3]): 9500 ± 500 M⁻¹ s⁻¹
- residence time (ecLeuRS [3]; read-out: SPR tR (residence time), ecLeuRS, in the presence of AMP): 100 min
- fold more potent binding than compound 1 (mtLeuRS [11]; SPR with AMP): ~ 50 fold
- Kd/IC50 (mtLeuRS [11]; ratio of SPR Kd (AMP) and IC50 after 1 h preincubation): 7
- MIC / antibacterial activity in efflux pump mutant strains (E. coli ΔtolC and ΔacrAB): no antibacterial activity
- antibacterial activity, no activity up to (E. coli ΔtolC and ΔacrAB): > 1 mM
- MIC [12]: 1.56 µM (≈ 0.402 µg/mL)
- MIC ([12]; Escherichia coli, read-out: MIC, four mutant strains together): 1.56 to 6.25 µM (≈ 0.402 to 1.61 µg/mL)
- IC50 [13]: > 300000 nM
- PAE 1xMIC [14, 15]: 0 h
- PAE 10xMIC [14, 16]: 32 ± 2 h
- PAE 30xMIC [14, 17]: 39 ± 2 h
- PAE 50xMIC [14, 18]: 77 ± 4 h
- PAE 50xMIC ([14]; 50xMIC exposure for 2.5 h, 10,000-fold dilution, listed as ganfeborole): 77 h

Compound: NNC(=O)c1ccncc1 [Isoniazid]
- MIC (M. tuberculosis H37Rv): 0.23 µM (≈ 0.0315 µg/mL)
- PAE at any concentration ([14]; 1x to 50xMIC): no detectable PAE
- PAE 1xMIC [14, 15]: 0 h
- PAE 10xMIC [14, 16]: 0 h
- PAE 30xMIC [14, 17]: 0 h
- PAE 50xMIC [14, 18]: 0 h

Compound: CCC[C@H](N)C(=O)O [Nva, L-Norvaline]
- MIC (E. coli ATCC25922 [5]; ATCC25922, read-out: MIC of Nva with 6.4 μM ganfeborole, E. coli ATCC25922, in the presence of 3.1 μM Leu): 25 µM
- MIC (E. coli ATCC25922 [5]; ATCC25922, read-out: MIC of Nva with 6.4 μM ganfeborole, E. coli ATCC25922, with 200 μM Leu): 1600 µM
- effect on bacterial growth, no effect up to (E. coli ATCC25922 [2]; Nva alone, E. coli): > 200 µM

Compound: CO[C@H]1/C=C/O[C@@]2(C)Oc3c(C)c(O)c4c(O)c(c(/C=N/N5CCN(C)CC5)c(O)c4c3C2=O)NC(=O)/C(C)=C\C=C\[C@H](C)[C@H](O)[C@@H](C)[C@@H](O)[C@@H](C)[C@H](OC(C)=O)[C@@H]1C [Rifampicin]
- MIC (M. tuberculosis H37Rv): 0.04 µM (≈ 0.0329 µg/mL)
- PAE (M. tuberculosis): 68 to 77 h
- PAE 1xMIC [14]: 22 ± 1 h
- PAE 10xMIC [14]: 30 ± 2 h
- PAE 30xMIC [14]: 36 ± 3 h
- PAE 50xMIC [14]: 72 h and 72 ± 4 h
